# Test results published in patent publication US5962476A, “Azolylamine derivative” (Kaken Pharmaceutical Co., Ltd., priority 1993, dated 1999).
# Read-outs that look alike come from different tables or passages of the source.
# How the values were obtained:
# [1] = system: Candida albicans ATCC-10259; experiment: Minimum inhibitory concentration (MIC), dilution method in SAAMF medium, 35° C. for 2 days; format: cell-based; conditions: ATCC10259, 48 h, read-out: Minimum inhibitory concentration (MIC), C.a.
# Method: (§1) MIC of a test compound against Candida albicans ATCC-10259 was determined by the both dilution method employing synthetic amino acid medium (SAAMF medium). Namely, to 3 μl of twofold dilution series of solution containing the test compound was added 300 μl of SAAMF medium inoculated with the fungus at the final concentration of 1×10^3 cells/ml. […] MIC of a test compound against the fungus other than the Candida albicans was determined by the agar dilution method employing Sabouraud's agar medium. That is to say, a test compound was dissolved in dimethyl sulfoxide to give a solution containing the test compound in the concentration of 10 mg/ml. Further, thus obtained solution was diluted with dimethyl sulfoxide according to twofold dilution series and 0.1 ml of the diluted solution was taken into a sterile shale. After 9.9 ml of Sabouraud's agar medium was added thereto, the mixture was sufficiently mixed to give a drug-added plate. The plate was inoculated with 5 μl of a fungus suspension at 10^6 cells/ml by Microplanter (Sakuma Seisakusho Co., Ltd.). As to Aspergillus fumigatus NI-5561 and Cryptococcus neoformans NI-7496, a plate was incubated at 30° C. for 48 hours. As to Trichophyton mentagrophytes KD-01, a plate was incubated at 30° C. for 7 days. […] Clotrimazole and fluconazole were used as comparative control compounds.
# Candida albicans ATCC 10259
# [2] = system: Cryptococcus neoformans NI-7496; experiment: Minimum inhibitory concentration (MIC), agar dilution method on Sabouraud's agar medium, 30° C. for 48 hours; format: cell-based; conditions: read-out: Minimum inhibitory concentration (MIC), Cr.n.
# Method: as §1
# Cryptococcus neoformans NI-7496
# [3] = system: Aspergillus fumigatus NI-5561; experiment: as above; format: cell-based; conditions: read-out: Minimum inhibitory concentration (MIC), A.f.
# Method: as §1
# Aspergillus fumigatus NI-5561
# [4] = system: Trichophyton mentagrophytes KD-01; experiment: Minimum inhibitory concentration (MIC), agar dilution method on Sabouraud's agar medium, 30° C. for 7 days; format: cell-based; conditions: KD01, 168 h, read-out: Minimum inhibitory concentration (MIC), T.m.
# Method: as §1, with “compounds. |Trichophyton mentagrophytes KD-01 | T. m.” for “compounds.”
# [5] = system: Trichophyton mentagrophytes KD-04; experiment: Effect on trichophytosis in guinea pigs; format: in vivo, male Hartley guinea pig; conditions: guinea pig, topical 1% solution, 0.2 ml once a day for 10 days from 3 days after infection
# Method: In the back of male Hartley guinea pig, weighing 400 to 500 g, a portion of skin was unhaired and rubbed lightly with sandpaper, to which 0.1 ml of microconidium suspension of Trichophyton mentagrophytes KD-04 (10^7 cells/ml) was dropped and the skin surface was infected by rubbing it with a glass rod. […] The animal was killed by etherization 2 days after the last treatment and 10 tissue specimens of skin were cut out from the infected portion and incubated on Sabouraud's agar medium for 7 days. Inhibitory ratio was calculated according to the following formula: […] of tissue specimens)}×100 The results are shown in Table 2. Clotrimazole was used as a control compound.
# Candida albicans KC-36 = experiment: Therapeutic effect on cutaneous candidiasis in guinea pigs; format: in vivo, male Hartley guinea pig; conditions: guinea pig, topical 1% solution, 0.2 ml once a day for 3 days from 2 days after infection
# Method: Inhibitory ratio (%={1-(number of tissue specimens found fungi/total number
# of tissue specimens)}×100
# In the back of male Hartley guinea pig, weighing 400 to 500 g, a portion of skin was unhaired, to which […] of spore suspension of Candida albicans KC-36 (5×10^7 cells/ml) was dropped and the skin surface was infected by rubbing it with a glass rod. To facilitate the infection, prednisolone was subcutaneously administered at 30 mg/kg on one day before the infection, the day of infection and 4 days after the infection. […] The animal was killed by etherization 2 days after the last treatment and 10 tissue specimens of skin were cut out from the infected portion and incubated on CANDIDA GS AGAR `EIKEN` (EIKEN CHEMICAL CO., LTD. ) for 7 days. The inhibitory ratio was calculated according to the above-mentioned formula. Clotrimazole was employed as a control compound.
# [6] = Acute toxicity test for mice; format: in vivo, male ICR mouse
# Method: The compound of Example 1 was dissolved in polyethylene glycol 200 and the resultant solution was applied to a male ICR mouse of 5 weeks old by oral or subcutaneous administration.
# [7] = Candida albicans ATCC 10259, SAAMF medium, 35° C., 2 days
# [8] = NI7496, Cryptococcus neoformans NI-7496, Sabouraud's agar, 30° C., 48 hours
# [9] = NI5561, Aspergillus fumigatus NI-5561, Sabouraud's agar, 30° C., 48 hours
# [10] = Cryptococcus neoformans, NI7496, 48 h
# [11] = Aspergillus fumigatus, NI5561, 48 h
SMILES,"MIC [1, 7]","MIC [2, 8]","MIC [3, 9]",MIC [4],further results
"C=C1CCN([C@H](C)[C@](O)(Cn2cncn2)c2ccc(F)cc2F)CC1 (racemic) [Example 2, (2RS,3RS)-2-(2,4-difluorophenyl)-3-(4-methylenepiperidino)-1-(1H-1,2,4-triazol-1-yl)butan-2-ol]",< 0.025 mg/L,0.1 mg/L,0.1 mg/L,0.39 mg/L,
"C=C1CCN([C@H](C)[C@](O)(Cn2ccnc2)c2ccc(F)cc2F)CC1 (racemic) [Example 5, (2RS,3RS)-2-(2,4-difluorophenyl)-3-(4-methylenepiperidino)-1-(1H-imidazol-1-yl)butan-2-ol]",< 0.025 mg/L,0.025 mg/L,0.05 mg/L,0.1 mg/L,
"Clc1ccccc1C(c1ccccc1)(c1ccccc1)n1ccnc1 [Clotrimazole, reference compound]",,,,0.39 mg/L,"MIC ([1]; Candida albicans): 0.025 mg/L; MIC [2, 10]: 0.2 mg/L; MIC [3, 11]: 0.78 mg/L; Inhibitory ratio [5]: 20%; Inhibitory ratio (Candida albicans KC-36): 96%"
"C=C1CCN([C@H](C)[C@](O)(Cn2cncn2)c2ccc(F)cc2F)CC1 [Example 1, (2R,3R)-2-(2,4-difluorophenyl)-3-(4-methylenepiperidino)-1-(1H-1,2,4-triazol-1-yl)butan-2-ol]",< 0.025 mg/L,0.05 mg/L,0.05 mg/L,0.39 mg/L,"Inhibitory ratio [5]: 98%; Inhibitory ratio (Candida albicans KC-36): 98%; Number of died mice/number of tested mice ([6]; oral, 500 mg/kg): 0/3; Number of died mice/number of tested mice ([6]; oral, 1000 mg/kg): 0/3; Number of died mice/number of tested mice ([6]; subcutaneous, 125 mg/kg): 0/3; Number of died mice/number of tested mice ([6]; subcutaneous, 250 mg/kg): 0/3; Number of died mice/number of tested mice ([6]; subcutaneous, 500 mg/kg): 0/3; Number of died mice/number of tested mice ([6]; subcutaneous, 1000 mg/kg): 0/3"
"C=C1CCN([C@H](C)[C@](O)(Cn2ccnc2)c2ccc(F)cc2F)CC1 [Example 4, (2R,3R)-2-(2,4-difluorophenyl)-3-(4-methylenepiperidino)-1-(1H-imidazol-1-yl)butan-2-ol]",< 0.025 mg/L,< 0.025 mg/L,0.05 mg/L,< 0.025 mg/L,
"C=C1CCN([C@H](C)[C@](O)(Cn2cncn2)c2ccc(Cl)cc2)CC1 [Example 6, (2R,3R)-2-(4-chlorophenyl)-3-(4-methylenepiperidino)-1-(1H-1,2,4-triazol-1-yl)butan-2-ol]",< 0.0125 mg/L,0.2 mg/L,6.25 mg/L,3.13 mg/L,
"C=C1CCN([C@H](C)[C@](O)(Cn2cncn2)c2ccc(Cl)cc2Cl)CC1 [Example 7, (2R,3R)-2-(2,4-dichlorophenyl)-3-(4-methylenepiperidino)-1-(1H-1,2,4-triazol-1-yl)butan-2-ol]",0.025 mg/L,0.05 mg/L,0.39 mg/L,0.39 mg/L,
"OC(Cn1cncn1)(Cn1cncn1)c1ccc(F)cc1F [Fluconazole, reference compound]",,,,> 100 mg/L,"MIC ([1]; Candida albicans): 0.39 mg/L; MIC [2, 10]: 12.5 mg/L; MIC [3, 11]: > 100 mg/L"

# Now from value to compound, other results behind:
"MIC [1, 7]","MIC [2, 8]","MIC [3, 9]",MIC [4],SMILES,further results
< 0.025 mg/L,0.1 mg/L,0.2 mg/L,0.78 mg/L,"CC=C1CCN([C@H](C)[C@](O)(Cn2cncn2)c2ccc(F)cc2F)CC1 (racemic) [Example 8, (2RS,3RS)-2-(2,4-difluorophenyl)-3-(4-ethylidenepiperidino)-1-(1H-1,2,4-triazol-1-yl)butan-2-ol]",
< 0.025 mg/L,0.025 mg/L,0.1 mg/L,0.39 mg/L,"C[C@@H](N1CCC(=Cc2ccccc2)CC1)[C@](O)(Cn1cncn1)c1ccc(F)cc1F (racemic) [Example 10, (2RS,3RS)-2-(2,4-difluorophenyl)-3-(4-benzylidenepiperidino)-1-(1H-1,2,4-triazol-1-yl)butan-2-ol]",
0.39 mg/L,0.78 mg/L,> 100 mg/L,50 mg/L,"C=C1CCN([C@@H](C)[C@@](O)(Cn2cncn2)c2ccc(F)cc2F)CC1 [Example 3, (2S,3S)-2-(2,4-difluorophenyl)-3-(4-methylenepiperidino)-1-(1H-1,2,4-triazol-1-yl)butan-2-ol]",
< 0.025 mg/L,0.1 mg/L,0.2 mg/L,0.78 mg/L,"C=CC=C1CCN([C@H](C)[C@](O)(Cn2cncn2)c2ccc(F)cc2F)CC1 [Example 12, (2R,3R)-2-(2,4-difluorophenyl)-3-(4-propenylidenepiperidino)-1-(1H-1,2,4-triazol-1-yl)butan-2-ol]",
0.1 mg/L,0.39 mg/L,0.78 mg/L,1.56 mg/L,"C=C1CCCN([C@H](C)[C@](O)(Cn2cncn2)c2ccc(F)cc2F)C1 [Example 13, (2R,3R)-2-(2,4-difluorophenyl)-3-(3-methylenepiperidino)-1-(1H-1,2,4-triazol-1-yl)butan-2-ol]",
< 0.025 mg/L,0.39 mg/L,0.39 mg/L,0.78 mg/L,"C=C1CCN([C@H](C)[C@](O)(Cn2cncn2)c2ccc(F)cc2F)C1 [Example 14, (2R,3R)-2-(2,4-difluorophenyl)-3-(3-methylenepyrrolidino)-1-(1H-1,2,4-triazol-1-yl)butan-2-ol]",
